Source: US8673950B2, “Dihydrooxazol-2-amine derivatives” (Hoffmann-LaRoche Inc., priority 2010, dated 2014)

Tests used:
mouse TAAR1 = mouse TAAR1 (Mus musculus (Mouse), UniProt Q923Y8); assay: Radioligand binding assay on mouse TAAR1; details: mouse TAAR1, membranes of stably transfected HEK-293 cells; first value of cell mouse/rat
Description: (§1) Construction of TAAR Expression Plasmids and Stably Transfected Cell Lines
(§2) For the construction of expression plasmids the coding sequences of human, rat and mouse TAAR 1 were amplified from genomic DNA essentially as described by Lindemann et al.. The Expand High Fidelity PCR System (Roche Diagnostics) was used with 1.5 mM Mg^2+ and purified PCR products were cloned into pCR2.1-TOPO cloning vector (Invitrogen) following the instructions of the manufacturer. PCR products were subcloned into the pIRESneo2 vector (BD Clontech, Palo Alto, Calif.), and expression vectors were sequence verified before introduction in cell lines.
(§3) HEK293 cells (ATCC # CRL-1573) were cultured essentially as described by Lindemann et al. (2005). For the generation of stably transfected cell lines HEK293 cells were transfected with the pIRESneo2 expression plasmids containing the TAAR coding sequences (described above) with Lipofectamine 2000 (Invitrogen) according to the instructions of the manufacturer, and 24 hrs post transfection the culture medium was supplemented with 1 mg/ml G418 (Sigma, Buchs, Switzerland). After a culture period of about 10 d clones were isolated, expanded and tested for responsiveness to trace amines (all compounds purchased from Sigma) with the cAMP Biotrak Enzyme immunoassay (EIA) System (Amersham) following the non-acetylation EIA procedure provided by the manufacturer.
Radioligand Binding Assay on Mouse TAAR1
(§4) Membrane Preparation and Radioligand Binding.
(§5) HEK-293 cells stably expressing mouse TAAR1 were maintained at 37° C. and 5% CO2 in DMEM high glucose medium, containing fetal calf serum (10%, heat inactivated for 30 min at 56° C.), penicillin/streptomycin (1%), and 375 μg/ml geneticin (Gibco). Cells were released from culture flasks using trypsin/EDTA, harvested, washed twice with ice-cold PBS (without Ca^2+ and Mg^2+), pelleted at 1'000 rpm for 5 min at 4° C., frozen and stored at −80° C. Frozen pellets were suspended in 20 ml HEPES-NaOH (20 mM, pH 7.4) containing 10 mM EDTA and homogenized with a Polytron (PT 6000, Kinematica) at 14'000 rpm for 20 s. The homogenate was centrifuged at 48'000×g for 30 min at 4° C. Subsequently, the supernatant was removed and discarded, and the pellet resuspended in 20 ml HEPES-NaOH (20 mM, pH 7.4) containing 0.1 mM EDTA using the Polytron (20 s at 14'000 rpm). This procedure was repeated and the final pellet resuspended in HEPES-NaOH containing 0.1 mM EDTA and homogenized using the Polytron. Typically, aliquots of 2 ml membrane portions were stored at −80° C. With each new membrane batch the dissociation constant (Kd) was determined via a saturation curve. The TAAR1 radioligand ^3[H]-(S)-4-[(ethyl-phenyl-amino)-methyl]-4,5-dihydro-oxazol-2-ylamine (described in WO 2008/098857) was used at a concentration equal to the calculated Kd value, that was usually around 0.7 nM, resulting in the binding of approximately 0.5% of the radioligand and a specific binding representing approximately 70% of the total binding. Nonspecific binding was defined as the amount of ^3[H]-(S)-4-[(ethyl-phenyl-amino)-methyl]-4,5-dihydro-oxazol-2-ylamine bound in the presence of 10 μM unlabeled ligand. All compounds were tested at a broad range of concentrations (10 μM to 10 μM) in duplicates. […] The 96 deep well plates were incubated for 1 hr at 4° C. Incubations were terminated by rapid filtration through Unifilter-96 plates (Packard Instrument Company) and glass filters GF/C (Perkin Elmer) presoaked for 1 hr in polyethylenimine (0.3%) and washed 3 times with 1 ml of cold binding buffer. After addition of 45 μl of Microscint 40 (PerkinElmer) the Unifilter-96 plate was sealed and after 1 hr the radioactivity counted using a TopCount Microplate Scintillation Counter (Packard Instrument Company).

rat TAAR1 = rat TAAR1 (Rattus norvegicus (Rat), UniProt Q923Y9); assay: Radioligand binding assay on rat TAAR1; details: rat TAAR1, membranes of stably transfected HEK-293 cells; second value of cell mouse/rat
Sequence of rat TAAR1 (Q923Y9 whole entry): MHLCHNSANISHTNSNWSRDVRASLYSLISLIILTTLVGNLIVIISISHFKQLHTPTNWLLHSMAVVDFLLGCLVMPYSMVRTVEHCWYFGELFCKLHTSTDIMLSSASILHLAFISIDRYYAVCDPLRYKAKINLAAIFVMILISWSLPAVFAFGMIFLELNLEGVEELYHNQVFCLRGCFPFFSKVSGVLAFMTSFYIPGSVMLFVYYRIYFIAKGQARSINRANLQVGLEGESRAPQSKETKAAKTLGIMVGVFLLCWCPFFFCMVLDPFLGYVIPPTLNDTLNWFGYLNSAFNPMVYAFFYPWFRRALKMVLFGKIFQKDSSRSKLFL
Description: as §1, §2, §3
Radioligand Binding Assay on Rat TAAR1
as §4
as §5, with “expressing rat” for “expressing mouse”, “curve. […]” for “curve. The TAAR1 radioligand ^3[H]-(S)-4-[(ethyl-phenyl-amino)-methyl]-4,5-dihydro-oxazol-2-ylamine (described in WO 2008/098857) was used at a concentration equal to the calculated Kd value, that was usually around 0.7 nM, resulting in the binding of approximately 0.5% of the radioligand and a specific binding representing approximately 70% of the total binding.”, “(10 pM” for “(10 μM”

Sequence of mouse TAAR1 (Q923Y8 whole entry): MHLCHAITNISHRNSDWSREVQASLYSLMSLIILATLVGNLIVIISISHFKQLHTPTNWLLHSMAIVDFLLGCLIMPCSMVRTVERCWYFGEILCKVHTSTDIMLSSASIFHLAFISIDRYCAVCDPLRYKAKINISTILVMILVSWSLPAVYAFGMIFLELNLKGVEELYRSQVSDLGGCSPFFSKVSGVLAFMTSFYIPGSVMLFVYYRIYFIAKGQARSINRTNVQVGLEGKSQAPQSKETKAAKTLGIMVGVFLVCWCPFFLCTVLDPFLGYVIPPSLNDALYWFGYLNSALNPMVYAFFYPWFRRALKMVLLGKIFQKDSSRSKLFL

NC1=N[C@@H](CCc2ccc(Nc3cccc4cccnc34)cc2)CO1 [Example 1, (S)-4-(4-(Quinolin-8-ylamino)phenethyl)-4,5-dihydrooxazol-2-amine]
Ki (mouse TAAR1): 0.0035 µM
Ki (rat TAAR1): 0.0006 µM

Cc1cc(Nc2ccc(CC[C@H]3COC(N)=N3)cc2)ncn1 [Example 24, {4-[2-((S)-2-Amino-4,5-dihydro-oxazol-4-yl)-ethyl]-phenyl}-(6-methyl-pyrimidin-4-yl)-amine]
Ki (mouse TAAR1): 0.0182 µM
Ki (rat TAAR1): 0.0013 µM

NC1=N[C@@H](CCc2ccc(NC(c3ccc(Cl)cc3)C(F)(F)F)cc2)CO1 (stereo partly drawn) [Example 63, (4S)-4-(4-(1-(4-Chlorophenyl)-2,2,2-trifluoroethylamino)phenethyl)-4,5-dihydrooxazol-2-amine]
Ki (mouse TAAR1): 0.0084 µM
Ki (rat TAAR1): 0.0022 µM

NC1=N[C@@H](CCc2ccc(Nc3ccc(Cl)c(Cl)c3)cc2)CO1 [Example 19, (S)-4-(4-(3,4-Dichlorophenylamino)phenethyl)-4,5-dihydrooxazol-2-amine]
Ki (mouse TAAR1): 0.0002 µM
Ki (rat TAAR1): 0.0001 µM

NC1=N[C@@H](CCc2ccc(Nc3ncc(C4CCC4)cn3)cc2)CO1 [Example 60, (S)-4-(4-(5-Cyclobutylpyrimidin-2-ylamino)phenethyl)-4,5-dihydrooxazol-2-amine]
Ki (mouse TAAR1): 0.0003 µM
Ki (rat TAAR1): 0.0002 µM

Cc1cnc(Nc2ccc(CC[C@H]3COC(N)=N3)cc2)nc1 [Example 46, {4-[2-((S)-2-Amino-4,5-dihydro-oxazol-4-yl)-ethyl]-phenyl}-(5-methyl-pyrimidin-2-yl)-amine]
Ki (mouse TAAR1): 0.0105 µM
Ki (rat TAAR1): 0.0012 µM

NC1=N[C@@H](CCc2ccc(Nc3ccc(C(F)(F)F)cn3)cc2)CO1 [Example 11, {4-[2-((S)-2-Amino-4,5-dihydro-oxazol-4-yl)-ethyl]-phenyl}-(5-trifluoromethyl-pyridin-2-yl)-amine]
Ki (mouse TAAR1): 0.0002 µM
Ki (rat TAAR1): 0.0004 µM

NC1=N[C@@H](CCc2ccc(N[C@H](c3ccc(Cl)cc3)C(F)(F)F)cc2)CO1 [Example 65, (−)-(S)-4-(4-((R)-1-(4-chlorophenyl)-2,2,2-trifluoroethylamino)phenethyl)-4,5-dihydrooxazol-2-amine]
Ki (mouse TAAR1): 0.0244 µM
Ki (rat TAAR1): 0.0032 µM

CCC(CC)c1cnc(Nc2ccc(CC[C@H]3COC(N)=N3)cc2)nc1 [Example 58, (S)-4-(4-(5-(Pentan-3-yl)pyrimidin-2-ylamino)phenethyl)-4,5-dihydrooxazol-2-amine]
Ki (mouse TAAR1): 0.0002 µM
Ki (rat TAAR1): 0.0001 µM

NC1=N[C@@H](CCc2ccc(Nc3nccc(C(F)(F)F)n3)cc2)CO1 [Example 40, {4-[2-((S)-2-Amino-4,5-dihydro-oxazol-4-yl)-ethyl]-phenyl}-(4-trifluoromethyl-pyrimidin-2-yl)-amine]
Ki (mouse TAAR1): 0.0024 µM
Ki (rat TAAR1): 0.001 µM

N#Cc1cnc(Nc2ccc(CC[C@H]3COC(N)=N3)cc2)nc1 [Example 59, 2-{4-[2-((S)-2-Amino-4,5-dihydro-oxazol-4-yl)-ethyl]-phenylamino}-pyrimidine-5-carbonitrile]
Ki (mouse TAAR1): 0.008 µM
Ki (rat TAAR1): 0.0008 µM

NC1=N[C@@H](CCc2ccc(Nc3ccc(F)cn3)cc2)CO1 [Example 3, (S)-4-(4-(5-Fluoropyridin-2-ylamino)phenethyl)-4,5-dihydrooxazol-2-amine]
Ki (mouse TAAR1): 0.0022 µM
Ki (rat TAAR1): 0.0002 µM

NC1=N[C@@H](CCc2ccc(Nc3cnc(Cl)nc3)cc2)CO1 [Example 50, {4-[2-((S)-2-Amino-4,5-dihydro-oxazol-4-yl)-ethyl]-phenyl}-(2-chloro-pyrimidin-5-yl)-amine]
Ki (mouse TAAR1): 0.0218 µM
Ki (rat TAAR1): 0.0006 µM

CCCc1cnc(Nc2ccc(CC[C@H]3COC(N)=N3)cc2)nc1 [Example 49, {4-[2-((8)-2-Amino-4,5-dihydro-oxazol-4-yl)-ethyl]-phenyl}-(5-propyl-pyrimidin-2-yl)-amine]
Ki (mouse TAAR1): 0.0007 µM
Ki (rat TAAR1): 0.0006 µM

NC1=N[C@@H](CCc2ccc(NC(c3cc(Cl)cc(Cl)c3)C(F)(F)F)cc2)CO1 (stereo partly drawn) [Example 69, (4S)-4-(4-(1-(3,5-Dichlorophenyl)-2,2,2-trifluoroethylamino)phenethyl)-4,5-dihydrooxazol-2-amine]
Ki (mouse TAAR1): 0.0355 µM
Ki (rat TAAR1): 0.0407 µM

NC1=N[C@@H](CCc2ccc(Nc3cccc4ccccc34)cc2)CO1 [Example 2, (S)-4-(4-(Naphthalen-1-ylamino)phenethyl)-4,5-dihydrooxazol-2-amine]
Ki (mouse TAAR1): 0.0021 µM
Ki (rat TAAR1): 0.0001 µM

C[S+]([O-])c1cnc(Nc2ccc(CC[C@H]3COC(N)=N3)cc2)nc1 (stereo partly drawn) [Example 75, (4S)-4-(4-(5-(Methylsulfinyl)pyrimidin-2-ylamino)phenethyl)-4,5-dihydrooxazol-2-amine]
Ki (mouse TAAR1): 0.48 µM
Ki (rat TAAR1): 0.104 µM

NC1=N[C@@H](CCc2ccc(Nc3cc(C(F)(F)F)ncn3)cc2)CO1 [Example 17, (S)-4-(4-(6-(Trifluoromethyl)pyrimidin-4-ylamino)phenethyl)-4,5-dihydrooxazol-2-amine]
Ki (mouse TAAR1): 0.0013 µM
Ki (rat TAAR1): 0.0012 µM

Cc1cc(CC[C@H]2COC(N)=N2)ccc1Nc1ncc(Cl)cn1 [Example 72, {4-[2-((S)-2-Amino-4,5-dihydro-oxazol-4-yl)-ethyl]-2-methyl-phenyl}-(5-chloro-pyrimidin-2-yl)-amine]
Ki (mouse TAAR1): 0.0019 µM
Ki (rat TAAR1): 0.0007 µM

NC1=N[C@@H](CCc2ccc(Nc3cccc(Cl)n3)cc2)CO1 [Example 28, {4-[2-((8)-2-Amino-4,5-dihydro-oxazol-4-yl)-ethyl]-phenyl}-(6-chloro-pyridin-2-yl)-amine]
Ki (mouse TAAR1): 0.001 µM
Ki (rat TAAR1): 0.0005 µM

Cc1ccnc(Nc2ccc(CC[C@H]3COC(N)=N3)cc2)n1 [Example 48, {4-[2-((S)-2-Amino-4,5-dihydro-oxazol-4-yl)-ethyl]-phenyl}-(4-methyl-pyrimidin-2-yl)-amine]
Ki (mouse TAAR1): 0.0166 µM
Ki (rat TAAR1): 0.0012 µM

NC1=N[C@@H](CCc2ccc(Nc3ncc(F)cn3)cc2)CO1 [Example 20, {4-[2-((S)-2-Amino-4,5-dihydro-oxazol-4-yl)-ethyl]-phenyl}-(5-fluoro-pyrimidin-2-yl)-amine]
Ki (mouse TAAR1): 0.0224 µM
Ki (rat TAAR1): 0.004 µM

NC1=N[C@@H](CCc2ccc(Nc3ncc(C4CC4)cn3)cc2)CO1 [Example 54, {4-[2-((S)-2-Amino-4,5-dihydro-oxazol-4-yl)-ethyl]-phenyl}-(5-cyclopropyl-pyrimidin-2-yl)-amine]
Ki (mouse TAAR1): 0.0003 µM
Ki (rat TAAR1): 0.0004 µM
